The text below walks through data of patent US8541567B2, “Transition state structure of 5′-methylthioadenosine/s-adenosylhomocysteine nucleosidases” (Albert Einstein College of Medicine of Yeshiva University, priority 2005, dated 2013).

Data set [1] addresses T1, E. coli MTAN (Escherichia coli, UniProt P0AF12).
T1 construct: consists of 232 amino acids belonging to E. coli MTAN and 10 residues from the N-terminal histidine fusion tag; histidine tag (N, cleaved yes); made in house
The conditions noted are these: cited from earlier work; for substrate activity: result in words.

The conditions of data set [2]: 9-deazapurine ring; cited from earlier work.
Data set [3] addresses T1, E. coli MTAN. Briefly: Slow-onset inhibition of E. coli MTAN by transition state analogues. It is filed as biochemical. The conditions noted are these: Kd 47 fM versus Km 4.3 μM.
Data set [4] addresses T1, E. coli MTAN. The note with it: overall / equilibrium dissociation constant; read-out: dissociation constant (Kd) following slow-onset inhibition, or Ki*; cited from earlier work.

“Also recorded” adds a separate entry of the source. Where only a bound is given, the exact number is not on record here.

T1 sequence (P0AF12 whole entry, the tested form may be a part): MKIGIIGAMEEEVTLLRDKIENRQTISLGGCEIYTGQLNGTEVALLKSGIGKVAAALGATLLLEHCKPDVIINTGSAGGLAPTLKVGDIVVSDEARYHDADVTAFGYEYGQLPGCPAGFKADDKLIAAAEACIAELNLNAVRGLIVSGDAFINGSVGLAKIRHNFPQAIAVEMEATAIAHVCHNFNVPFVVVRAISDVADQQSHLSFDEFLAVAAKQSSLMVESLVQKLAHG

As to `CSC[C@H]1O[C@@H](n2cnc3c(N)ncnc32)C[C@@H]1O` [2′-deoxy-MTA], the catalytic activity retained on E. coli MTAN [1] (relative to MTA) was 85%. Moreover, the substrate activity entry on E. coli MTAN [1] is listed as “good substrate”. As to `CSC[C@@H]1C[C@@H](O)[C@H](n2cnc3c(N)ncnc32)O1` [3′-deoxy-MTA], the substrate activity entry at E. coli MTAN [1] is “is not; also recorded: not a substrate”. In general, pKa refers to the pH at which an ionisable group is half protonated. Consider `Nc1ncnc2cc[nH]c12` [9-deazaadenine], for which the “pKa at N7” value in data set [2] was above 10. What is called Km is the concentration of substrate that gives half-maximal velocity. Turning to `Nc1ncnc2c1ncn2[C@@H]1O[C@H](CSCC[C@H](N)C(=O)O)[C@@H](O)[C@H]1O` [S-adenosylhomocysteine], on E. coli MTAN [1] (substrate S-adenosylhomocysteine), the Km is 4.3 µM.

For the molecule `Nc1ncnc2c(CN3C[C@H](CSc4ccc(Cl)cc4)[C@@H](O)C3)c[nH]c12` [pC1PhT-DADMe-ImmA, (3R,4S)-4-(4-chlorophenylthiomethyl)-1-[(9-deazaadenin-9-yl]methyl)-3-hydroxypyrrolidine], on E. coli MTAN [3], the “binds tighter than the substrate S-adenosylhomocysteine” value is reported as 91 million.

Broadly, the Kd is the equilibrium constant for the complex coming apart. As to “(1S)-1-(9-deazaadenin-9-yl)-1,4-dideoxy-1,4-imino-5-methylthio-D-ribitol [MT-ImmA]”, the Kd at E. coli MTAN [4] was 0.077 nM.
